From patent US20240287074A1, “SALTS AND CRYSTALS” (Kinoxis Therapeutics Pty Ltd, priority 2020, published 2024)
Entries after “also recorded” stand apart in the source; their conditions may differ. Structures can show the parent of a compound that is named as a salt. Marks after values point to notes of the source that are not given here.

Legend:
[1] = 1-week stability studies (XRPD, HPLC); assay type: physicochemical; conditions: 1 week; ambient temperature, light and humidity; 40° C./75% RH; 80° C.
Protocol: The isolated 1-methyl-1,4,5,10-tetrahydropyrazolo[3,4-b][1,5]benzodiazepine freebase was characterized by TG/DTA, DSC, DVS with post-DVS, XRPD, HPLC, ^1H NMR and LC-MS, as per the methods detailed above. The 1-methyl-1,4,5,10-tetrahydropyrazolo[3,4-b][1,5]benzodiazepine freebase was stored at 40° C./75% relative humidity (RH) for 1 week to determine the stability of the material at increased RH and to identify potential hydrate formation.
One-week stability studies were conducted on the freebase (example 1), phosphate form 1 (example 3) and L-tartrate form 1 (example 5) salts using the following procedures: • Approximately 20 mg of each form was weighed into 3×2 mL glass vials. • One vial for each form was stored under the following conditions for 1-week: • 1. Ambient temperature, light and humidity (unsealed vial) • 2. 40° C./75% RH (unsealed vial) • 3. 80° C. (sealed vial) • The samples were collected after 1-week and observations were made. • The solids were analyzed by XRPD and HPLC.

[2] = Salt disproportionation studies in deionized water; assay type: physicochemical; conditions: about 24 hours
Protocol: The following procedure was used during the salt disproportionation studies: • Approximately 20 mg of phosphate form 1 (Example 3) and L-tartrate form 1 (Example 5) were weighed into 2 mL glass vials. • Deionized water was added to each sample in 100 μL aliquots until a mobile slurry was observed. • The slurries were agitated at ambient temperature for about 24 hours. • The slurries were collected and filtered via centrifugation. • The isolated solids were analyzed by XRPD. • The pH of the mother liquors were recorded.

[3] = Thermodynamic solubility in PBS buffer pH 7.4; assay type: physicochemical
Protocol: The thermodynamic solubility of freebase (example 1), phosphate form 1 (example 3) and L-tartrate form 1 (example 5) were assessed in phosphate buffered saline (PBS) buffer at pH 7.4 according to the following procedure: • Approximately 30 mg of each form was weighed into 2 mL glass vials. • 100 μL of buffer solution was added to each vial until partial dissolution was observed. • The observed slurries were agitated at ambient temperature for about 24 hours. • The samples were collected, and observations were recorded. • The samples were filtered via centrifugation. • The pH of the mother liquors were recorded. • The concentration of the mother liquors were recorded by HPLC.

[4] = Oral pharmacokinetics in rats; assay type: in vivo; conditions: male Sprague Dawley rats; for Plasma AUC0-inf/Dose / Plasma Cmax/Dose: dose-normalised; for Plasma AUC0-inf/Dose / Plasma Cmax/Dose / % Dose in urine: listed as Phosphate salt; for Apparent t1/2 / BA % / Plasma AUC0-inf / Plasma Cmax / Tmax / % Dose in urine: 5 mg/kg target dose (freebase equivalent), 5 mg/kg; for Apparent t1/2 / BA % / Plasma AUC0-inf / Plasma Cmax / Tmax: mean ± SD, n = 3, listed as Phosphate salt; for % Dose in urine: urine up to 24 h
Protocol: N=3 rats were run in each of the four conditions: • (1) Di-HCL salt in saline • (2) Di-HCL salt in methocel • (3) Phosphate form 1 in saline • (4) Phosphate form 1 in methocel
On the day of dosing the solid compounds were dissolved in either Saline (0.9%) or 0.5% hydroxypropyl methylcellulose (Methocel E3 Premium LV) in Milli-Q water. The formulations were then thoroughly vortexed to produce colourless solutions.
Overnight-fasted rats with adlibitum access to water were administered their dose of the various forms of the compound of the invention via oral gavage (PO) at a dose volume of 3 ml/kg and a dose of 5 mg/kg freebase equivalent. Food access was re-instated 4 hours (h) post-dose. Samples of arterial blood were collected up to 24 h post-dose. After collection, samples were centrifuged, plasma was removed and stored frozen at −80° C. before being analysed by LC-MS. Urine samples were collected at pre, 0-4 h, 4-7 h and 7-24 h post-dose and were analysed by LC-MS following extraction.

[5] = test system: C57BL/6 mouse model of opioid withdrawal; test: Naloxone precipitated oxycodone withdrawal-induced jumping; assay type: in vivo; conditions: 7.3 mg/kg FBE i.p., C57BL/6 mice, 30 min session, vs OXY_VEH
Protocol: Two cohorts of adult male C57BL/6 mice were run assessing the effects of 7.3 mg/kg freebase equivalent (FBE) IP of the compound of the invention in the dihydrochloride salt form (CMPD1-2HCL) and the phosphate form 1 (CMPD1-PO4) on naloxone precipitated withdrawal-induced jumping.
The first cohort of mice (N=30) were split into the following conditions: • (1) Vehicle, 0 mg/kg (n=10); • (2) oxycodone, 0 mg/kg compound of the invention FBE in 2HCL salt form (n=10); • (3) oxycodone, 7.3 mg/kg compound of the invention FBE in 2HCL salt form (n=10).
The second cohort of mice (N=24) were split into the following conditions: • (1) Vehicle, 0 mg/kg (n=8); • (2) oxycodone, 0 mg/kg compound of the invention FBE in PO4 salt form (n=8); • (3) oxycodone, 7.3 mg/kg compound of the invention FBE in PO4 salt form (n=8).
Mice in the oxycodone conditions received i.p. injections of oxycodone for 5 days according to the schedule and doses set out in Table 8. The morning and afternoon doses were separated by 7 h. Mice in the vehicle condition received injections of vehicle saline instead of oxycodone. […]
Testing involved placing mice individually into a 20 (I)×20 (w)×30 (h) cm arena for 30 min. […] Number of jumps were scored from the videos by an experienced experimenter blind to conditions.
Data were analysed by SPSS using oneway ANOVA and planned contrasts.

**Q.** What does the source list for `Cn1ncc2c1Nc1ccccc1NC2` [Phosphate form 1, phosphoric acid addition salt of 1-methyl-1,4,5,10-tetrahydropyrazolo[3,4-b][1,5]benzodiazepine]?
**A.** changes in form by XRPD [1]: no changes in form; changes in purity by HPLC [1]: did not identify any significant changes in purity; change in XRPD pattern ([2]; material slurried in water): No change in XRPD pattern; salt disproportionation ([2]; slurry in deionized water, ambient temperature): Salt disproportionation was not observed; also recorded: No evidence; solubility ([3]; PBS buffer at pH 7.4, ambient temperature, about 24 hours, HPLC): 7400 µg/mL; pH (t = 24 h) ([3]; mother liquor of PBS pH 7.4 slurry): 3.48; Plasma AUC0-inf/Dose ([4]; Methocel): 0.85 ± 0.18 (μg*h/mL)/(mg/kg); Plasma Cmax/Dose ([4]; Methocel): 0.41 ± 0.05 (μg/mL)/(mg/kg); Plasma AUC0-inf/Dose ([4]; Saline): 1.02 ± 0.36 (μg*h/mL)/(mg/kg); Plasma Cmax/Dose ([4]; Saline): 0.43 ± 0.03 (μg/mL)/(mg/kg); Apparent t1/2 ([4]; Methocel): 36 ± 1.2 min; BA % ([4]; Methocel): 93.2 ± 20^b %; Plasma AUC0-inf ([4]; Methocel): 4160 ± 880 ng·h/mL; Plasma Cmax ([4]; Methocel): 2010 ± 250 ng/mL; Tmax ([4]; Methocel): 15 ± 0 min; % Dose in urine ([4]; Methocel): 0.222 ± 0.093%; Apparent t1/2 ([4]; Saline): 48.6 ± 12 min; BA % ([4]; Saline): 111 ± 40^b %; Plasma AUC0-inf ([4]; Saline): 4950 ± 1750 ng·h/mL; Plasma Cmax ([4]; Saline): 2090 ± 140 ng/mL; Tmax ([4]; Saline): 30 ± 24 min; % Dose in urine ([4]; Saline): 0.395^d %; exposure profile compared with dihydrochloride salt form ([4]; saline or methocel vehicle): same exposure profile; oxycodone withdrawal-induced jumping [5]: significantly inhibited
